The first test relates to Plasmodium berghei. The experiment in a line: Antimalarial activity against Plasmodium berghei infected in po dosed mouse assessed as suppression of parasitemia administered for 6 days. Format: functional.
Turning to `Nc1nc(N)c2cc(Oc3ccc(Cl)c4ccccc34)ccc2n1`, the “log(1/SD90)” value is listed as 3.57.
As to `Nc1nc(N)c2cc(Oc3cc(Cl)cc(Cl)c3)ccc2n1`, the “log(1/SD90)” value is 4.11.
As for `Nc1nc(N)c2cc(NCc3ccc(Cl)c(Cl)c3)ccc2n1`, the “log(1/SD90)” value is 4.59.
The same measure, in the same setting: for `Nc1nc(N)c2cc(Oc3ccc4cc(Br)ccc4c3)ccc2n1` the value was 4.09; for `Nc1nc(N)c2cc(Oc3ccc(Cl)c(Cl)c3)ccc2n1`, 4.52.
For the compound `Nc1nc(N)c2cc(OCc3ccccc3)ccc2n1`, the “log(1/SD90)” value came out at 3.18.
With `Nc1nc(N)c2cc(Oc3ccccc3)ccc2n1`, the “log(1/SD90)” value is 4.43.
With `Nc1nc(N)c2cc(OCc3ccc(Cl)cc3)ccc2n1`, the “log(1/SD90)” value was 4.06.
As for `Nc1nc(N)c2cc(Oc3ccc4cc(Br)ccc4c3Br)ccc2n1`, the “log(1/SD90)” value came out at 4.05.
The same measure, in the same setting: as for `Nc1nc(N)c2cc(Oc3cc(Cl)c(Cl)cc3Cl)ccc2n1`, the figure is 4.57; as for `Nc1nc(N)c2cc(Oc3cc(C(F)(F)F)cc(C(F)(F)F)c3)ccc2n1`, 4.44.

A further test has as its system Plasmodium berghei. The experiment in a line: Antimalarial activity against Plasmodium berghei infected in po dosed mouse assessed as suppression of parasitemia administered for 4 days. Format: functional.
As to `Nc1nc(N)c2cc(N(Cc3ccc(Cl)c(Cl)c3)N=O)ccc2n1`, the “log(1/SD90)” value is listed as 6.13.
Still for that read-out and setting: for `Nc1nc(N)c2cc(N3CCCC3c3ccccc3)ccc2n1` (centres undefined) the value was 5.94.
Still for that read-out and setting: as for `Nc1nc(N)c2cc(N3CCc4ccccc4C3)ccc2n1`, the figure is 4.8.
Take `Cc1ccc(C)n1-c1cc(-n2c(C)ccc2C)c2nc(N)nc(N)c2c1`: the “log(1/SD90)” value stood at 4.34.
Same read-out and setting: for `Nc1nc(N)c2cc(N3CCC(c4ccccc4)CC3)ccc2n1` the value was 4.3.

The target of a further test is T1, Dihydrofolate reductase (Rattus norvegicus) (UniProt Q920D2).
T1 sequence (whole entry): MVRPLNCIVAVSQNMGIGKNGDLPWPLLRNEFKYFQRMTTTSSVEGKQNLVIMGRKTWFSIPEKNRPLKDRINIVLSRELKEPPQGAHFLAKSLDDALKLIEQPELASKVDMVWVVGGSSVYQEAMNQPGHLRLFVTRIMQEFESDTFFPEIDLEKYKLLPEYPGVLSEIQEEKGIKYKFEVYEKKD
Description: Inhibition of rat liver dihydrofolate reductase
For `Nc1ncc(Cc2ccccc2)c(N)n1`, the log(1/I50) was found to be 4.8.

In another test the target is T2, Dihydrofolate reductase (Enterococcus faecium) (UniProt P00380).
T2 sequence (whole entry): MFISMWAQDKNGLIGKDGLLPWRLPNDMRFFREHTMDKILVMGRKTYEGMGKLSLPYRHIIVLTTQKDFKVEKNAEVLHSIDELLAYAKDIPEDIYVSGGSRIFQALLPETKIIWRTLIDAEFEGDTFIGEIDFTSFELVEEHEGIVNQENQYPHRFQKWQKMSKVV
Description: Inhibition of Streptococcus faecium dihydrofolate reductase using dihydrofolate as substrate
Turning to `Nc1nc(S)c2cc(S(=O)(=O)c3ccc4ccccc4c3)ccc2n1`, the log(1/I50) was 5.17.
Compound `CCCCOC(=O)c1ccc(NCc2ccc3nc(N)nc(N)c3c2)cc1` came in with a log(1/I50) of 7.52.
The same measure, in the same setting: for `Nc1nc(N)c2c(Sc3ccc4ccccc4c3)cccc2n1` the value was 7.25; for `Nc1ncnc2ccc([S+]([O-])c3ccc4ccccc4c3)cc12` (centres undefined), 4.58; for `O=c1[nH]c(=S)c2cc(Sc3ccc4ccccc4c3)ccc2[nH]1`, 4.24.
For `Nc1nc(O)c2cc(Sc3ccc(Cl)c(Cl)c3)ccc2n1`, the log(1/I50) stood at 5.92.
Turning to `Nc1nc(N)c2cc(CN(C=O)c3ccc(C(=O)NC(CCC(=O)O)C(=O)O)cc3)ccc2n1` (centres undefined), the log(1/I50) is 9.
As for `Nc1nc(N)c2c(S(=O)(=O)c3ccc(Cl)c(Cl)c3)cccc2n1`, the log(1/I50) was found to be 5.85.
The compound `Nc1nc(N)c2cc(Sc3ccc(Cl)c(Cl)c3)ccc2n1` displayed a log(1/I50) of 8.24.
The compound `Nc1nc(O)c2cc(S(=O)(=O)c3ccc(Cl)c(Cl)c3)ccc2n1` had a log(1/I50) of 5.3.
The compound `CCOC(=O)CCC(NC(=O)c1ccc(NCc2ccc3nc(N)nc(N)c3c2)cc1)C(=O)OCC` (centres undefined) yielded a log(1/I50) of 7.7.
For `Nc1nc(N)c2cc(CNc3ccc(C(=O)O)cc3)ccc2n1`, the log(1/I50) worked out at 8.8.
In turn, `CCOC(=O)c1ccc(CNc2ccc3nc(N)nc(O)c3c2Cl)cc1` gave a log(1/I50) of 6.09.
On to `Nc1nc(O)c2cc(CN(C=O)c3ccc(C(=O)NC(CCC(=O)O)C(=O)O)cc3)ccc2n1` (centres undefined), for which the log(1/I50) came out at 6.52.
`CCOC(=O)c1ccc(CNc2ccc3nc(N)nc(O)c3c2)cc1`: the log(1/I50) was 4.55.

The target of the next test is T3, Dihydrofolate reductase (Escherichia coli) (UniProt P0ABQ4).
T3 sequence (whole entry): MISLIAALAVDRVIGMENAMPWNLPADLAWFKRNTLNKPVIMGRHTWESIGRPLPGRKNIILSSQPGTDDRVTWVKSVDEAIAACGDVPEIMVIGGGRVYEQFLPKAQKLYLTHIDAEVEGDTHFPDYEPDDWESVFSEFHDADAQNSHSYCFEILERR
Description: Inhibition of Escherichia coli dihydrofolate reductase
Take `Cc1ccc(Cc2cnc(N)nc2N)cc1`: the log(1/I50) came out at 5.64.
As to `COc1ccc(Cc2cnc(N)nc2N)cc1`, the log(1/I50) turned out to be 5.96.
On to `COc1cc(Cc2cnc(N)nc2N)cc(Cl)c1OC`, for which the log(1/I50) worked out at 7.4.
In the case of `COc1ccc(Cc2cnc(N)nc2N)cc1OC`, the log(1/I50) was determined as 7.
For the compound `Nc1ncc(Cc2ccc(O)cc2)c(N)n1`, the log(1/I50) was determined as 5.74.
Turning to `COc1cccc(Cc2cnc(N)nc2N)c1`, the log(1/I50) was 6.31.
Same read-out and setting: as for `Nc1ncc(Cc2ccc(Cl)cc2)c(N)n1`, the figure is 5.68.

In another test the test system is Plasmodium berghei. The experiment in a line: Antimalarial activity against Plasmodium berghei infected mouse assessed as suppression of parasitemia administered through diet for 6 days. Format: functional.
In the case of `Nc1nc(N)c2cc(NCCc3ccc(Cl)cc3)ccc2n1`, the “log(1/SD90)” value amounted to 4.24.
On to `Nc1nc(N)c2cc(NCc3cccc(Br)c3)ccc2n1`, for which the “log(1/SD90)” value is reported as 5.93.
With `CC(C)N(Cc1ccc(Cl)cc1)c1ccc2nc(N)nc(N)c2c1`, the “log(1/SD90)” value was determined as 6.76.
Turning to `Cc1c(NCc2ccc(Cl)c(Cl)c2)ccc2nc(N)nc(N)c12`, the “log(1/SD90)” value stood at 4.83.
On to `CN(C)c1nc(N)c2cc(NCc3ccccc3)ccc2n1`, for which the “log(1/SD90)” value worked out at 3.75.
As for `CN(Cc1ccc(Cl)c(Cl)c1)c1ccc2nc(N)nc(N)c2c1`, the “log(1/SD90)” value is 6.34.
For `CCN(Cc1ccc(Cl)c(Cl)c1)c1ccc2nc(N)nc(N)c2c1C`, the “log(1/SD90)” value turned out to be 5.2.
`CC(c1ccc(Cl)c(Cl)c1)N(C)c1ccc2nc(N)nc(N)c2c1` (centres undefined): the “log(1/SD90)” value was determined as 5.6.
For the compound `CCN(CC)c1nc(N(CC)CC)c2cc(NCc3ccc(Cl)c(Cl)c3)ccc2n1`, the “log(1/SD90)” value is 3.31.
For `Nc1nc(N)c2cc(N(Cc3ccc(Cl)c(Cl)c3)N=O)cnc2n1`, the “log(1/SD90)” value is 4.48.
As for `Nc1nc(N)c2cc(NCc3ccc(Cl)s3)ccc2n1`, the “log(1/SD90)” value is recorded as 4.49.
On to `CCN(Cc1cccc2ccccc12)c1ccc2nc(N)nc(N)c2c1`, for which the “log(1/SD90)” value turned out to be 5.97.
For the compound `CCCCN(Cc1ccc(Cl)c(Cl)c1)c1ccc2nc(N)nc(N)c2c1`, the “log(1/SD90)” value was 5.06.
With `COc1cccc(CNc2ccc3nc(N)nc(N)c3c2)c1`, the “log(1/SD90)” value was found to be 4.15.
`Nc1nc(N)c2cc(NCc3cccs3)ccc2n1`: the “log(1/SD90)” value is 3.82.
For the compound `CCCN(Cc1ccc(Cl)c(Cl)c1)c1ccc2nc(N)nc(N)c2c1C`, the “log(1/SD90)” value came to 5.36.
Same read-out and setting: for `Nc1nc(N)c2cc(NCc3ccc4ccccc4c3Cl)ccc2n1` the value was 4.59; for `Nc1nc(N)c2cc(NCc3ccccc3[N+](=O)[O-])ccc2n1`, 3.26; for `CCN(Cc1ccc(Cl)cc1)c1ccc2nc(N)nc(N)c2c1`, 6.4.
Turning to `Cc1c(NCc2ccccc2)ccc2nc(N)nc(N)c12`, the “log(1/SD90)” value is recorded as 5.33.
As to `Nc1nc(N)c2c(Cl)c(NCc3ccc(Cl)c(Cl)c3)ccc2n1`, the “log(1/SD90)” value came out at 5.72.
For `Nc1nc(N)c2cc(NCc3ccccc3N)ccc2n1`, the “log(1/SD90)” value is 3.07.
For `CCCN(Cc1ccc(Cl)c(Cl)c1)c1ccc2nc(N)nc(N)c2c1`, the “log(1/SD90)” value came to 6.1.
`CCCN(Cc1ccc(Cl)cc1)c1ccc2nc(N)nc(N)c2c1`: the “log(1/SD90)” value came out at 6.3.
With `CC(Nc1ccc2nc(N)nc(N)c2c1)c1ccc(Cl)c(Cl)c1` (centres undefined), the “log(1/SD90)” value is reported as 4.6.
On to `CCCCCCCCN(Cc1ccc(Cl)cc1)c1ccc2nc(N)nc(N)c2c1`, for which the “log(1/SD90)” value is 4.08.
Take `CN(C)c1nc(N(C)C)c2cc(NCc3ccc(Cl)c(Cl)c3)ccc2n1`: the “log(1/SD90)” value worked out at 4.21.
Regarding `CN(Cc1ccccc1)c1ccc2nc(N)nc(N)c2c1`, the “log(1/SD90)” value was 6.15.
For the compound `CCN(Cc1ccc(Cl)c(Cl)c1)c1ccc2nc(N)nc(N)c2c1`, the “log(1/SD90)” value stood at 6.
Consider `CCCCNc1nc(NCCCC)c2cc(NCc3ccc(Cl)c(Cl)c3)ccc2n1`, for which the “log(1/SD90)” value is on record as 3.47.

The test system of another test is Proteus vulgaris. In words: Inhibition of Proteus vulgaris dihydrofolate reductase.
`CCCCc1ccc(N2C(N)=NC(N)=NC2(C)C)cc1` had an Activity of 10000 ×10⁻⁸ M.
The compound `COc1cc(Cc2cnc(N)nc2N)cc(OC)c1OC` gave an Activity of 0.5 ×10⁻⁸ M.

For the next test, the system named is Plasmodium berghei. In words: Antimalarial activity against Plasmodium berghei infected in po dosed mouse assessed as suppression of parasitemia. Format: functional.
Take `Nc1nc(N)c2cc(-n3cccc3)ccc2n1`: the “log(1/SD90)” value was determined as 4.29.
As to `Nc1nc(N)c2c(n1)CCN(Cc1ccc(Cl)c(Cl)c1)C2`, the “log(1/SD90)” value stood at 4.92.
Take `Cc1c(N(C=O)Cc2ccc(Cl)c(Cl)c2)ccc2nc(N)nc(N)c12`: the “log(1/SD90)” value amounted to 5.69.
Consider `Cc1c(CN(N=O)c2ccc(Cl)c(Cl)c2)ccc2nc(N)nc(N)c12`, for which the “log(1/SD90)” value came to 5.52.
For the compound `Nc1nc(N)c2c(n1)CCN(Cc1ccncc1)C2`, the “log(1/SD90)” value was 3.31.
Still for that read-out and setting: as for `Nc1nc(N)c2c(n1)CCN(Cc1ccccc1Cl)C2`, the figure is 3.73.
Regarding `Nc1nc(N)c2c(n1)CCN(Cc1cccnc1)C2`, the “log(1/SD90)” value was 3.88.
Take `Nc1nc(N)c2cc(CNc3ccc(Cl)c(Cl)c3)ccc2n1`: the “log(1/SD90)” value amounted to 5.56.
As for `Nc1nc(N)c2c(n1)CCN(Cc1c(Cl)cccc1Cl)C2`, the “log(1/SD90)” value worked out at 4.36.
As for `Cc1c(N(Cc2ccc(Cl)c(Cl)c2)N=O)ccc2nc(N)nc(N)c12`, the “log(1/SD90)” value is 5.15.
`Nc1nc(N)c2c(n1)CCN(Cc1ccccc1)C2`: the “log(1/SD90)” value is given as 3.65.
For `Nc1nc(N)c2cc(CNc3ccc(Cl)cc3)ccc2n1`, the “log(1/SD90)” value is recorded as 5.2.
`Cc1c(CNc2ccc(Cl)cc2)ccc2nc(N)nc(N)c12`: the “log(1/SD90)” value was 6.55.
Take `Nc1nc(N)c2c(n1)CCN(Cc1ccc(Cl)cc1Cl)C2`: the “log(1/SD90)” value was determined as 4.4.
In the case of `Nc1nc(N)c2cc(N(C=O)Cc3ccc(Cl)c(Cl)c3)ccc2n1`, the “log(1/SD90)” value was found to be 5.24.
Consider `Nc1nc(N)c2c(n1)CCN(Cc1ccc(Cl)cc1)C2`, for which the “log(1/SD90)” value is 4.14.
The same measure, in the same setting: as for `Nc1nc(N)c2cc(CN(N=O)c3ccc(Cl)c(Cl)c3)ccc2n1`, the figure is 6.16; as for `Cc1c(CNc2ccc(Cl)c(Cl)c2)ccc2nc(N)nc(N)c12`, 6.02.

The record behind these values is ChEMBL document CHEMBL3272349, “Quantitative structure-activity relationships of antimalarial and dihydrofolate reductase inhibition by quinazolines and 5-substituted benzyl-2,4-diaminopyrimidines” (J Med Chem, 1977).
